Values quoted from earlier work as cited in patent US7251609B1, “Method for conducting clinical trials over the internet” (The Trustees of Boston University, priority 1999, dated 2007).

System: patients with knee OA

## Cl.N[C@H]1C(O)O[C@H](CO)[C@@H](O)[C@@H]1O (stereo partly drawn) [glucosamine hydrochloride]
94 patients with knee OA
  major adverse events: No major adverse events
94 patients with knee OA, identical rate in glucosamine and placebo groups
  rate of minor adverse symptoms: 12%
Study of Houpt et al, knee OA
  efficacy: only modest efficacy
